From US20060241100A1, “Acylaminobicyclic heteroaromatic compounds and uses thereof” (Pfizer Inc, priority 2005, published 2006)

Test system: CB-1 receptor
Test: CB-1 receptor binding ([3H]SR141716A displacement)
Conditions: rat or human CB-1 protocol not specified; kind of value (Ki/IC50) not stated
Experimental: Compounds having an activity <20 nM are generally tested in the CB-1 GTPγ [^35S] Binding Assay and the CB-2 binding assay described below in the Biological Binding Assays section. Selected compounds are then tested in vivo using one or more of the functional assays described in the Biological Functional Assays section below. The compounds in the Examples above provided a range of CB-1 receptor binding activities from 0.1 to 500 nM.
The following assays were designed to detect compounds that inhibit the binding of [^3H] SR141716A (selective radiolabeled CB-1 ligand) and [^3H]5-(1,1-dimethylheptyl)-2-[5-hydroxy-2-(3-hydroxypropyl)-cyclohexyl]-phenol; radiolabeled CB-1/CB-2 ligand) to their respective receptors. […]
The test compounds were diluted in drug buffer (0.5% BSA, 10% DMSO and TME) and then 25 μl were added to a deep well polypropylene plate. […] In the morning the filters were counted on a Wallac Betaplate™ counter (available from PerkinElmer Life Sciences™, Boston, Mass.). […]
The test compounds were diluted in drug buffer (0.5% BSA, 10% DMSO and TME) and then 25 μl were added to a deep well polypropylene plate. […] In the morning the filters were counted on a Wallac Betaplate™ counter (available from PerkinElmer Life Sciences™, Boston, Mass.).

- CB-1 receptor binding activity: 47 nM
Structure (SMILES): CNC1CCCOc2c1nn(-c1ccccc1Cl)c2-c1ccc(Cl)cc1 (stereo not shown) [Example 1C]
